According to patent publication US20060287316A1, “METHOD FOR IMPROVING PHARMACOKINETICS OF PROTEASE INHIBITORS AND PROTEASE INHIBITOR PRECURSORS” (priority 2005, published 2006):
pEC50: −log10 of the molar value. Like-named read-outs stand apart in the source and are kept apart here.

Legend:
[1] = test system: laboratory adapted HIV strain (NL4-3); experiment: microbe, parasite or virus in culture; settings: for pEC50: Human immunodeficiency virus 1, NL43, MT4, MT4 cells infected with NL4-3; for SI (CC50/EC50): ratio of cytotoxicity (CC50) to antiviral activity (EC50)
Procedure: Briefly, the antiviral activity of PL-100 was determined using MT4 cells infected with a laboratory adapted HIV strain (NL4-3). For comparison, seven approved protease inhibitors (PIs) were tested in parallel.
The effect of 40% human serum on the antiviral activity of PL-100 in MT4 cells infected with NL4-3 was therefore evaluated.

[2] = test system: 63 HIV isolates with reduced susceptibility to all approved protease inhibitors; format: cell-based, HIV-1; settings: for % FC < 2.5 / % FC < 10 / % FC > 50 / Mean FC / Median FC: 63 diverse, multi-PI-resistant strains; for Mean FC / Median FC: FC in IC50 vs NL-4.3
Text: The cross-resistance profile of PL-100 against 63 HIV isolates with reduced susceptibility to all approved protease inhibitors (P is) including atazanavir was thus tested.
The panel of 63 viral strains was selected based on the following rationale: 1) High-level loss of susceptibility to specific P is; 2) High-level loss of susceptibility to multiple P is; 3) Good representation of the primary mutations. This panel consists of resistant viruses from highly PI-experienced patients with high-level PI resistance.
The genotype of these viruses encompasses a wide variety of mutational patterns. We particularly looked for the following primary PI mutations: D30N, L33F/I, M461/L, G48V, I50L/V, V82A/F/S/T, I84V and L90M as defined by the International AIDS Society (IAS)-USA.
The dark cells indicate a […], the grey cells indicate FC values of 2.5≦FC<10 and the white cells indicate a FC value of; 0≦FC<2.5. The results of cross-resistance profile are further illustrated in the graph of FIG. 1.
In the cross-resistance profiling studies against the 63 resistant strains mentioned herein, EC95 of PL-100 was determined against each strain. The median EC95 represents the concentration required to inhibit 95% of the viral replication of 50% diverse drug-resistant HIV-1 variants tested. Table 8 illustrates the percentage of resistant strains tested with protein-binding adjusted EC95s≦200 ng/ml. The resistant strains are grouped by the number of primary mutations they have.
The EC95 of PL-100 was determined against each of the 63 resistant strains indicated herein. Table 9 illustrates the percentage of resistant strains tested with protein-binding adjusted EC95s≦630 ng/ml. The resistant strains are grouped by the number of primary mutations they have.

[3] = Cytotoxicity in the same cell culture system; format: cell-based; settings: human, MT4 cells
Procedure: Cytotoxicity of PL-100 and other P is was evaluated in the same cell culture system. The selectivity index (SI) is the ratio of cytotoxicity (CC50) to antiviral activity (EC50). The selective index is similar to the therapeutic index but relates to in vitro studies.

[4] = Plasma concentration after single oral dose in rats (in vivo cleavage of the phosphate group); parameters: species or system male Sprague-Dawley rats
Procedure: To assess the extent of in vivo cleavage of the phosphate group from the putative compounds, PL-100, PL-462 (based on PL-100), PL-337 and PL-515 (based on PL-337) compounds were administered po (per os, (i.e., by mouth)) (50 mg/kg) to male Sprague-Dawley rats and their plasma concentration measured at different time intervals post-administration.
All test articles (PL-100, PL-462, PL-337 and PL-515) were prepared in different vehicle at the final concentration of 25 mg/mL. The vehicle composition is as follows: (1) 20% ethanol; 50% propylene glycol; 0.05% w/v Tween 20 and water (Mix); (2) PBS buffer (PBS).
Test articles were administered to male Sprague-Dawley rats at a single oral dose of 50 mg/kg. Each article was tested in three rats. Blood samples (0.2-0.3 mL) were collected at the post-dose time of 10, 20, 40, 60, 120, 180 and 360 minutes. The harvested blood was centrifuged to isolate plasma. The resulting plasma was separated and stored at −70° C.
Plasma samples together with standards and quality control samples were treated to precipitate proteins, then analyzed by HPLC-MS, for the presence of PL-462, PL-100, PL-515 and PL-337.

[5] = sample O3-148709 (non-B subtype), 32I/47A, panel ID 1
[6] = sample O4-148748, 37S/41K/70E, panel ID 115
[7] = sample O4-148749, 37T/41K/70E, panel ID 151

Row | SMILES | pEC50 [1] | SI (CC50/EC50) [1] | % FC < 2.5 [2] [%] | % FC < 10 [2] [%] | % FC > 50 [2] [%] | Mean FC [2] | Median FC [2] | Fold change in IC50 vs. Reference [2, 5] | Fold change in IC50 vs. Reference [2, 6] | Fold change in IC50 vs. Reference [2, 7] | CC50 [3] [nM] | other results
1 | CC(C)(C)NC(=O)[C@@H]1C[C@@H]2CCCC[C@@H]2CN1C[C@@H](O)[C@H](Cc1ccccc1)NC(=O)[C@H](CC(N)=O)NC(=O)c1ccc2ccccc2n1 [Saquinavir] | 7.92 | 1,583 | 27 | 40 | 37 | 85 | 23.2 | 0.2 | 1.2 | 1.2 | 19000 | Fold change in IC50 vs. Reference ([2]; sample O3-129573, 24I/33F/46I/54L/82A, panel ID 3): 1.5; Fold change in IC50 vs. Reference ([2]; sample O3-129578, 46I/82T/84V, panel ID 11): 1; Fold change in IC50 vs. Reference ([2]; sample O3-129584, 33F/50V, panel ID 24): 1.7; Fold change in IC50 vs. Reference ([2]; sample O4-148711, 46I/47A/84V, panel ID 119): 1.1; Fold change in IC50 vs. Reference ([2]; sample O4-148712, 46I/88S, panel ID 122): 1.9; Fold change in IC50 vs. Reference ([2]; sample O4-148712, 46I/88S, panel ID 124): 2; Fold change in IC50 vs. Reference ([2]; sample O4-148713, 46I/88S, panel ID 123): 0.6; Fold change in IC50 vs. Reference ([2]; sample O4-148721, 32I/46I/47V/50L, panel ID 127): 0.5; Fold change in IC50 vs. Reference ([2]; sample O4-148725, 32I/46L/47V/84V, panel ID 53): 0.8; Fold change in IC50 vs. Reference ([2]; sample O4-148745, 46I/50L/54V/82A, panel ID 99): 2.2
2 | CC(C)c1nc(CN(C)C(=O)N[C@H](C(=O)N[C@@H](Cc2ccccc2)C[C@H](O)[C@H](Cc2ccccc2)NC(=O)OCc2cncs2)C(C)C)cs1 [Ritonavir, ritonavir] | 7.21 | – | – | – | – | – | – | – | – | – | – | –
3 | COC(=O)N[C@H](C(=O)NCCCC[C@@H](COP(=O)(O)O)N(CC(C)C)S(=O)(=O)c1ccc(N)cc1)C(c1ccccc1)c1ccccc1.[Na] [PL-462, (1S,5S)-(1-{5-[(4-amino-benzenesulfonyl)-isobutyl-amino]-6-phosphonooxy-hexylcarbamoyl}-2,2-diphenyl-ethyl)-carbamic Acid Methyl Ester Sodium Salt] | – | – | – | – | – | – | – | – | – | – | – | AUC ([4]; 50 mg/Kg po, vehicle PBS, 3 rats, released active ingredient detected (PL-100 for PL-462, PL-337 for PL-515)): 0.816 ± 0.295 μg/hr * ml; Detection of the administered phosphate compound in blood samples ([4]; 50 mg/kg po as aqueous solution): None of the PL-462 and PL-515 compounds, delivered as aqueous solutions, are detected
4 | COC(=O)N[C@H](C(=O)N[C@@H](Cc1ccccc1)[C@@H](O)CN(Cc1ccc(-c2ccccn2)cc1)NC(=O)[C@@H](NC(=O)OC)C(C)(C)C)C(C)(C)C [Atazanavir] | 8.40 | 13,750 | 16 | 38 | 22 | 25.7 | 15.6 | 1 | 1.4 | 1.5 | 55000 | –
5 | CC(C)(C)NC(=O)[C@@H]1CN(Cc2cccnc2)CCN1C[C@@H](O)C[C@@H](Cc1ccccc1)C(=O)N[C@H]1c2ccccc2C[C@H]1O [Indinavir] | 7.17 | – | 13 | 54 | 5 | 16.5 | 8.1 | – | – | – | > 100000 | –
